ChEMBL document CHEMBL3120120, “Toxicological and pharmacological evaluation, antioxidant, ADMET and molecular modeling of selected racemic chromenotacrines {11-amino-12-aryl-8,9,10,12-tetrahydro-7H-chromeno[2,3-b]quinolin-3-ols} for the potential prevention and treatment of Alzheimer's disease” (Eur J Med Chem, 2014)
Activity calls are given as the source filed them. No cut-off for these calls is given here.

How the values were obtained:
Cerebral cortex neuron [1] = assay: Neuroprotective activity in Wistar rat embryo primary cortical neuron using DEVD-AMC as flurogenic substrate assessed as inhibition of SNP-induced cell necrosis by measuring caspase 3 activity at 25 to 50 uM by spectroflurometric analysis in presence of serum relative to control; assay type: functional, cell-based
Cerebral cortex neuron [2] = assay: Neuroprotective activity in Wistar rat embryo primary cortical neuron using DEVD-AMC as flurogenic substrate assessed as inhibition of oligomycin A-induced cell death by measuring caspase 3 activity at 25 to 50 uM by spectroflurometric analysis in presence of serum relative to control; assay type: functional, cell-based
[3] = Neuroprotective activity in Wistar rat embryo primary cortical neuron using DEVD-AMC as flurogenic substrate assessed as inhibition of SNP-induced cell necrosis by measuring caspase 3 activity at 25 to 50 uM by spectroflurometric analysis relative to control; assay type: functional, Cerebral cortex neuron
HepG2 [4] = assay: Hepatotoxicity against human HepG2 cells assessed as cell viability after 24 hrs by MTT assay; assay type: toxicity, cell-based; settings: hepg2, 24 h
[5] = Neuroprotective activity in Wistar rat embryo primary cortical neuron using DEVD-AMC as flurogenic substrate assessed as inhibition of oligomycin A-induced cell death by measuring caspase 3 activity at 25 to 50 uM by spectroflurometric analysis relative to control; assay type: functional, Cerebral cortex neuron
[6] = Toxicity in Wistar rat embryo primary cortical neuron assessed as increase in ROS formation at >25 uM; assay type: cell-based; settings: cerebral cortex neuron
[7] = Neuroprotective activity in Wistar rat embryo primary cortical neuron assessed as reduction of SNP-induced cell death by measuring cell viability at 100 uM after 24 hrs by XTT assay relative to control; assay type: functional, Cerebral cortex neuron
[8] = Neuroprotective activity in Wistar rat embryo primary cortical neuron assessed as reduction of oligomycin A-induced cell death by measuring cell viability at 100 uM after 24 hrs by XTT assay relative to control; assay type: functional, Cerebral cortex neuron
[9] = Neuroprotective activity in Wistar rat embryo primary cortical neuron assessed as reduction of SNP-induced cell death by measuring cell viability after 24 hrs by XTT assay relative to control; assay type: functional, cell-based; settings: Cerebral cortex neuron
[10] = Neuroprotective activity in Wistar rat embryo primary cortical neuron assessed as reduction of oligomycin A-induced cell death by measuring cell viability after 24 hrs by XTT assay relative to control; assay type: functional, cell-based; settings: Cerebral cortex neuron
[11] = Neuroprotective activity in Wistar rat embryo primary cortical neuron assessed as reversal of SNP-induced ROS formation at 25 uM after 24 hrs by spectrofluorometric analysis relative to control; assay type: functional, Cerebral cortex neuron
[12] = Neuroprotective activity in Wistar rat embryo primary cortical neuron assessed as reversal of SNP-induced ROS formation at 10 uM after 24 hrs by spectrofluorometric analysis relative to control; assay type: functional, Cerebral cortex neuron
[13] = Neuroprotective activity in Wistar rat embryo primary cortical neuron assessed as reversal of SNP-induced ROS formation at 1 uM after 24 hrs by spectrofluorometric analysis relative to control; assay type: functional, Cerebral cortex neuron
[14] = Antioxidant activity against AAPH-induced lipid peroxidation assessed as inhibition of conjugated diene hydroperoxide production at 100 uM; assay type: functional
Glycine max = assay: Inhibition of soybean lipoxygenase assessed as conversion of sodium linoleate to 13-hydroperoxylinoleic acid at 100 uM by UV absorbance assay
SH-SY5Y = assay: Antioxidant activity in human SH-SY5Y cells assessed as decrease in H2O2-induced MDA level after 8 hrs by TBARS assay; assay type: functional, cell-based
[15] = target: Acetylcholinesterase (Electrophorus electricus) (UniProt O42275); assay: Noncompetitive inhibition of electric eel AchE using acetylcholine as substrate at 0.01 to 10 uM preincubated for 15 mins followed by substrate addition measured for 5 mins by Lineweaver-Burk plot analysis
Acetylcholinesterase [16] = target: T1, Acetylcholinesterase (Electrophorus electricus, UniProt O42275); assay: Noncompetitive inhibition of electric eel AchE using acetylcholine as substrate preincubated for 15 mins followed by substrate addition measured for 5 mins by Dixon plot analysis
HepG2 [17] = assay: Hepatotoxicity against human HepG2 cells assessed as LDH release at 1 to 300 uM; assay type: toxicity, cell-based; settings: hepg2, 300 µM
Acetylcholinesterase [18] = target: T1, Acetylcholinesterase
Description: Inhibition of electric eel AchE using acetylcholine as substrate preincubated for 15 mins followed by substrate addition measured for 5 mins by Ellman method

in vitro [19] = settings: human, HepG2 cells
Description: Hepatotoxicity against human HepG2 cells assessed as cell viability at 300 uM after 24 hrs by MTT assay relative to control

in vitro [20] = settings: human, HepG2 cells; remark: listed apart in the source
Description: Hepatotoxicity against human HepG2 cells assessed as cell viability at 30 uM after 24 hrs by MTT assay relative to control

in vitro [21] = settings: human, HepG2 cells; remark: listed apart in the source
Description: Hepatotoxicity against human HepG2 cells assessed as cell viability at 100 uM after 24 hrs by MTT assay relative to control

in vitro [22] = settings: human, HepG2 cells; remark: listed apart in the source
Description: Hepatotoxicity against human HepG2 cells assessed as cell viability at 10 uM after 24 hrs by MTT assay relative to control

in vitro [23] = settings: human, HepG2 cells; remark: listed apart in the source
Description: Hepatotoxicity against human HepG2 cells assessed as cell viability at 1 uM after 24 hrs by MTT assay relative to control

in vitro [24] = settings: human, HepG2 cells; remark: listed apart in the source
Description: Hepatotoxicity against human HepG2 cells assessed as cell viability at 3 uM after 24 hrs by MTT assay relative to control

T1 sequence (O42275 whole entry): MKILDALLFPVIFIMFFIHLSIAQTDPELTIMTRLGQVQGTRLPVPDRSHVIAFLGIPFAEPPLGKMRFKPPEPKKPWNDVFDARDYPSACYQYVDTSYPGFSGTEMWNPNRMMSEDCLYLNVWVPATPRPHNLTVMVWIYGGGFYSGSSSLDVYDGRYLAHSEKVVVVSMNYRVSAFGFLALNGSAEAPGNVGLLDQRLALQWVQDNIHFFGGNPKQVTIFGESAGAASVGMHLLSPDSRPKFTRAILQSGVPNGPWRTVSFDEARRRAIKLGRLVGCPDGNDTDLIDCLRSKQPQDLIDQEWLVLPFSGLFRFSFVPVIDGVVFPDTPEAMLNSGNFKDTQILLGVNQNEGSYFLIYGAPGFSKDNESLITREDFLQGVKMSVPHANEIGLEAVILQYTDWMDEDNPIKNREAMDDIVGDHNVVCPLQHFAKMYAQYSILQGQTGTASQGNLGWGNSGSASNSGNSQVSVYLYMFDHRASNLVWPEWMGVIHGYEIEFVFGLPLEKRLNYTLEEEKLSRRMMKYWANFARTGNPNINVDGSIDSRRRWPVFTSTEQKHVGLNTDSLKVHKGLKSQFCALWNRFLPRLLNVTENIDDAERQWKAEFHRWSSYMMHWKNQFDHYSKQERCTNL
Sequence of Acetylcholinesterase (Electrophorus electricus) (O42275 24-633 limits assumed): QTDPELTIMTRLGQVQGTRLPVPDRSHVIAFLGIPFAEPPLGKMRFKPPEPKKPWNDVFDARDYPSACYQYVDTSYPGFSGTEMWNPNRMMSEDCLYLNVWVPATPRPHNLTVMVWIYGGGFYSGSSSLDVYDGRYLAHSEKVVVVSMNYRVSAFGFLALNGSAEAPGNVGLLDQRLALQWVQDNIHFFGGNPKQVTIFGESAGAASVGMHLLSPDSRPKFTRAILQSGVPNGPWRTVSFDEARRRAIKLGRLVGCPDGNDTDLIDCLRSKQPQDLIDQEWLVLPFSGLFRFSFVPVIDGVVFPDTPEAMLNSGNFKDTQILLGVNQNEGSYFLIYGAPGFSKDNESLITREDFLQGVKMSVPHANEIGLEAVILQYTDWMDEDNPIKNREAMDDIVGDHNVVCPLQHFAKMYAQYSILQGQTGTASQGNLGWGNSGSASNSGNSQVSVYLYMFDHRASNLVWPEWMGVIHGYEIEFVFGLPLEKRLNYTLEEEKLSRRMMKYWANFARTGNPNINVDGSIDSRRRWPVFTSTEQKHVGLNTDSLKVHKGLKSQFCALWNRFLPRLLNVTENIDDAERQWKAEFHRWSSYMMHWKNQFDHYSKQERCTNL

SMILES: COc1cc(C2c3ccc(O)cc3Oc3nc4c(c(N)c32)CCCC4)cc(OC)c1OC (racemic)
- inhibition (Cerebral cortex neuron [1]): Active
- inhibition (Cerebral cortex neuron [2]): Active
- fold change (FC) [3]: 3.43
- Activity (HepG2 [4]): Dose-dependent effect
- fold change (FC) [5]: 1.83
- Activity [6]: Toxic
- Activity [7]: 148.12%
- Activity [8]: 81.08%
- EC50 [9]: 3.47 µM
- EC50 [10]: 1110 nM
- fold change (FC) [11]: 1.81
- fold change (FC) [12]: 1.93
- fold change (FC) [13]: 2.31
- inhibition [14]: 85%
- inhibition (Glycine max): 18%
- Activity (SH-SY5Y): Dose-dependent effect
- inhibition [15]: Active
- Ki (Acetylcholinesterase [16]): 47 nM
- Activity (HepG2 [17]): Non-toxic
- IC50 (Acetylcholinesterase [18]): 41 nM
- viability at 24 h, 300 µM (in vitro [19]): 103%
- viability at 24 h, 30 µM (in vitro [20]): 100%
- viability at 24 h, 100 µM (in vitro [21]): 98.3%
- viability at 24 h, 10 µM (in vitro [22]): 101%
- viability at 24 h, 1 µM (in vitro [23]): 102%
- viability at 24 h, 3 µM (in vitro [24]): 98.7%

SMILES: Cc1c(C)c2c(c(C)c1O)CCC(C)(C(=O)O)O2 (stereo unspecified)
- inhibition [14]: 63%

SMILES: Nc1c2c(nc3c1C(c1ccc(Br)cc1)c1ccc(O)cc1O3)CCCC2 (racemic)
- Activity (HepG2 [4]): Dose-dependent effect
- IC50 (Acetylcholinesterase [18]): 7 nM
- viability at 24 h, 300 µM (in vitro [19]): 61.5%
- viability at 24 h, 30 µM (in vitro [20]): 76.9%
- viability at 24 h, 100 µM (in vitro [21]): 74.4%
- viability at 24 h, 10 µM (in vitro [22]): 84.8%
- viability at 24 h, 1 µM (in vitro [23]): 99%
- viability at 24 h, 3 µM (in vitro [24]): 87.4%

SMILES: CN(C)c1ccc(C2c3ccc(O)cc3Oc3nc4c(c(N)c32)CCCC4)cc1 (racemic)
- Activity (HepG2 [4]): Dose-dependent effect
- IC50 (Acetylcholinesterase [18]): 290 nM
- viability at 24 h, 300 µM (in vitro [19]): 80.3%
- viability at 24 h, 30 µM (in vitro [20]): 85.5%
- viability at 24 h, 100 µM (in vitro [21]): 85.5%
- viability at 24 h, 10 µM (in vitro [22]): 86.1%
- viability at 24 h, 1 µM (in vitro [23]): 99%
- viability at 24 h, 3 µM (in vitro [24]): 88.5%

SMILES: Nc1c2c(nc3c1C(c1ccccc1)c1ccc(O)cc1O3)CCCC2 (racemic)
- Activity (HepG2 [4]): Dose-dependent effect
- IC50 (Acetylcholinesterase [18]): 550 nM
- viability at 24 h, 300 µM (in vitro [19]): 49.6%
- viability at 24 h, 30 µM (in vitro [20]): 62.4%
- viability at 24 h, 100 µM (in vitro [21]): 55.8%
- viability at 24 h, 10 µM (in vitro [22]): 66.2%
- viability at 24 h, 1 µM (in vitro [23]): 99.5%
- viability at 24 h, 3 µM (in vitro [24]): 67.4%

SMILES: COc1ccc(C2c3ccc(O)cc3Oc3nc4c(c(N)c32)CCCC4)cc1 (racemic)
- Activity (HepG2 [4]): Dose-dependent effect
- IC50 (Acetylcholinesterase [18]): 530 nM
- viability at 24 h, 300 µM (in vitro [19]): 75.5%
- viability at 24 h, 30 µM (in vitro [20]): 95%
- viability at 24 h, 100 µM (in vitro [21]): 85.9%
- viability at 24 h, 10 µM (in vitro [22]): 94.1%
- viability at 24 h, 1 µM (in vitro [23]): 97.3%
- viability at 24 h, 3 µM (in vitro [24]): 96.8%

SMILES: Cc1ccc(C2c3ccc(O)cc3Oc3nc4c(c(N)c32)CCCC4)cc1 (racemic)
- Activity (HepG2 [4]): Dose-dependent effect
- IC50 (Acetylcholinesterase [18]): 65 nM
- viability at 24 h, 300 µM (in vitro [19]): 47.9%
- viability at 24 h, 30 µM (in vitro [20]): 74.3%
- viability at 24 h, 100 µM (in vitro [21]): 71.7%
- viability at 24 h, 10 µM (in vitro [22]): 85.6%
- viability at 24 h, 1 µM (in vitro [23]): 96.9%
- viability at 24 h, 3 µM (in vitro [24]): 89.5%

SMILES: Nc1c2c(nc3c1C(c1ccc(F)cc1)c1ccc(O)cc1O3)CCCC2 (racemic)
- Activity (HepG2 [4]): Dose-dependent effect
- IC50 (Acetylcholinesterase [18]): 103 nM
- viability at 24 h, 300 µM (in vitro [19]): 50.1%
- viability at 24 h, 30 µM (in vitro [20]): 55.7%
- viability at 24 h, 100 µM (in vitro [21]): 55.5%
- viability at 24 h, 10 µM (in vitro [22]): 62.8%
- viability at 24 h, 1 µM (in vitro [23]): 91%
- viability at 24 h, 3 µM (in vitro [24]): 75.1%

SMILES: CC(Cc1ccc(O)c(O)c1)C(C)Cc1ccc(O)c(O)c1 (stereo unspecified)
- inhibition (Glycine max): 84%
